According to patent publication US7138361B2, “Herbicidal heterocycles” (E. I. du Pont de Nemours and Company, priority 2000, dated 2006):

How the values were obtained:
Format in all cases: in vivo
rice (Oryza saliva) = test: Test C flooded paddy test; settings: for Rice plant response rating: Flooded Paddy, scale 0 to 100, 0 no effect, 100 complete control; for Plant response rating, Rice: flooded paddy test, scale 0 to 100 (0 no effect, 100 complete control)
Procedure, shortened: (§1)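 Visual ratings (0 = no effect, 100 = complete control) were made 12–14 days after treatment, relative to greenhouse controls. Plants in the flooded paddy test were rice, smallflower flatsedge, duck salad and barnyardgrass, treated at the 2-leaf stage.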

[1] = system: duck salad (Heteranthera limosa); test: Test C flooded paddy test; settings: for Ducksalad plant response rating: Flooded Paddy, scale 0 to 100, 0 no effect, 100 complete control; for Plant response rating, Ducksalad: flooded paddy test, scale 0 to 100 (0 no effect, 100 complete control)
Procedure, shortened: as §1

[2] = system: smallflower flatsedge (Cyperus difformis); test: Test C flooded paddy test; settings: for Flatsedge plant response rating: Flooded Paddy, scale 0 to 100, 0 no effect, 100 complete control; for Plant response rating, Flatsedge: flooded paddy test, scale 0 to 100 (0 no effect, 100 complete control)
Procedure, shortened: as §1

[3] = system: barnyardgrass (Echinochloa crus-galli); test: Test C flooded paddy test; settings: for Barnyardgrass plant response rating: Flooded Paddy, scale 0 to 100, 0 no effect, 100 complete control; for Plant response rating, Barnyardgrass: flooded paddy test, scale 0 to 100 (0 no effect, 100 complete control)
Procedure, shortened: as §1

[4] = system: lambsquarters (Chenopodium album); test: Test C preemergence
Procedure, shortened: (§2)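 Pre- and postemergence treatments used a non-phytotoxic solvent/surfactant formulation; post-treated plants measured 2 to 18 cm. Greenhouse hold 12–14 d; % control estimated visually relative to controls.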

soybean (Glycine max) = test: Test C preemergence
Procedure, shortened: as §2

Nightshade [5] = test: Test C preemergence
corn (Zea mays) [6] = test: Test C preemergence
Procedure, shortened: as §2

[7] = system: pigweed (Amaranthus retroflexus); test: Test C preemergence
Procedure, shortened: as §2

[8] = system: yellow nutsedge (Cyperus esculentus); test: Test C preemergence
Procedure, shortened: as §2

kochia (Kochia scoparia) = test: Test C preemergence
Procedure, shortened: as §2

[9] = system: johnsongrass (Sorghum halepense); test: Test C preemergence
Procedure, shortened: as §2

[10] = system: woolly cupgrass (Eriochloa villosa); test: Test C preemergence
Procedure, shortened: as §2

Sunflower = test: Test C preemergence; settings: Rate 125 g/ha, scale 0 to 100, 0 no effect, 100 complete control
Nightshade [11] = test: Test C preemergence; settings: Rate 250 g/ha, visual evaluation after 12 to 14 days
[12] = system: wheat (Triticum aestivum); test: Test B postemergence; settings: 13 to 15 days
Procedure, shortened: (§3)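 Visual injury scores, 0 = no effect to 100 = complete control, assigned against controls after 13 to 15 days in the greenhouse. Compounds formulated in non-phytotoxic solvent plus surfactant and applied to soil after planting (pre) or onto foliage of 1- to 4-leaf plants (post).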

corn (Zea mays) [13] = test: Test B postemergence; settings: 13 to 15 days
Procedure, shortened: as §3

[14] = system: barnyardgrass (Echinochloa crus-galli); test: Test B postemergence; settings: 13 to 15 days
Procedure, shortened: as §3

wild oat (Avena fatua) = test: Test B postemergence; settings: 13 to 15 days
Procedure, shortened: as §3

[15] = Preemergence, Rate 500 g/ha, scale 0 to 100
[16] = Rate 62 g/ha, scale 0 to 100, 0 no effect, 100 complete control
[17] = preemergence, Rate 250 g/ha, visual evaluation after 12 to 14 days
[18] = preemergence, Rate 125 g/ha, scale 0 to 100, 0 no effect, 100 complete control
[19] = Rate 125 g/ha, scale 0 (no effect) to 100 (complete control)
[20] = Rate 500 g/ha, scale 0 to 100, 0 is no effect, 100 is complete control

Structure (SMILES): CCC(C)c1ccn(C2SCN(c3cccc(C(F)(F)F)c3)C2=O)n1 (stereo not shown) [Compound 20]
- Rice plant response rating (rice (Oryza saliva); Rate 250 g/ha): 60
- Rice plant response rating (rice (Oryza saliva); Rate 500 g/ha): 70
- Plant response rating, Rice (rice (Oryza saliva); Rate 62 g/ha): 0
- Plant response rating, Rice (rice (Oryza saliva); Rate 125 g/ha): 20
- Ducksalad plant response rating ([1]; Rate 250 g/ha): 100
- Ducksalad plant response rating ([1]; Rate 500 g/ha): 100
- Plant response rating, Ducksalad ([1]; Rate 62 g/ha): 100
- Plant response rating, Ducksalad ([1]; Rate 125 g/ha): 100
- Flatsedge plant response rating ([2]; Rate 250 g/ha): 100
- Flatsedge plant response rating ([2]; Rate 500 g/ha): 100
- Plant response rating, Flatsedge ([2]; Rate 62 g/ha): 90
- Plant response rating, Flatsedge ([2]; Rate 125 g/ha): 100
- Barnyardgrass plant response rating ([3]; Rate 250 g/ha): 100
- Barnyardgrass plant response rating ([3]; Rate 500 g/ha): 100
- Plant response rating, Barnyardgrass ([3]; Rate 62 g/ha): 70
- Plant response rating, Barnyardgrass ([3]; Rate 125 g/ha): 100
- Plant response rating, Lambsquarters [4, 15]: 100
- Plant response rating, Lambsquarters [4, 16]: 90
- Plant response rating (0 to 100), Lambsquarters [4, 17]: 100
- Plant response rating, Lambsquarters [4, 18]: 100
- Plant response rating, Soybean (soybean (Glycine max); [15]): 60
- Plant response rating, Soybean (soybean (Glycine max); [16]): 0
- Plant response rating (0 to 100), Soybean (soybean (Glycine max); [17]): 60
- Plant response rating, Soybean (soybean (Glycine max); [18]): 0
- Plant response rating, Nightshade (Nightshade [5]; [16]): 30
- Plant response rating, Nightshade (Nightshade [5]; Rate 125 g/ha, scale 0 to 100, 0 no effect, 100 complete control): 70
- Plant response rating, Nightshade (Nightshade [5]; Rate 500 g/ha, scale 0 to 100): 90
- Plant response rating, Corn (corn (Zea mays) [6]; [15]): 30
- Plant response rating, Corn (corn (Zea mays) [6]; [16]): 0
- Plant response rating (0 to 100), Corn (corn (Zea mays) [6]; [17]): 30
- Plant response rating, Corn (corn (Zea mays) [6]; [18]): 30
- Plant response rating, Pigweed [7, 15]: 60
- Plant response rating, Pigweed [7, 16]: 0
- Plant response rating (0 to 100), Pigweed [7, 17]: 100
- Plant response rating, Pigweed [7, 18]: 30
- Plant response rating, Nutsedge [8, 15]: 50
- Plant response rating, Nutsedge [8, 16]: 0
- Plant response rating (0 to 100), Nutsedge [8, 17]: 50
- Plant response rating, Nutsedge [8, 18]: 0
- Plant response rating, Kochia (kochia (Kochia scoparia); [15]): 100
- Plant response rating, Kochia (kochia (Kochia scoparia); [16]): 90
- Plant response rating (0 to 100), Kochia (kochia (Kochia scoparia); [17]): 100
- Plant response rating, Kochia (kochia (Kochia scoparia); [18]): 100
- Plant response rating, Johnsongrass [9, 15]: 100
- Plant response rating, Johnsongrass [9, 16]: 0
- Plant response rating (0 to 100), Johnsongrass [9, 17]: 50
- Plant response rating, Johnsongrass [9, 18]: 20
- Plant response rating, Cupgrass, Woolly [10, 15]: 100
- Plant response rating, Cupgrass, Woolly [10, 16]: 0
- Plant response rating (0 to 100), Cupgrass, Woolly [10, 17]: 90
- Plant response rating, Cupgrass, Woolly [10, 18]: 50
- Plant response rating, Sunflower (Sunflower): 40
- Plant response rating (0 to 100), Nightshade (Nightshade [11]): 90
- Plant response rating, Wheat [12, 19]: 0
- Plant response rating, Wheat [12, 20]: 0
- Plant response rating, Corn (corn (Zea mays) [13]; [19]): 0
- Plant response rating, Corn (corn (Zea mays) [13]; [20]): 20
- Plant response rating, Barnyardgrass [14, 19]: 60
- Plant response rating, Barnyardgrass [14, 20]: 100
- Plant response rating, Wild Oat (wild oat (Avena fatua); [19]): 0
- Plant response rating, Wild Oat (wild oat (Avena fatua); [20]): 0
